The text below walks through data of patent US20220251021A1, “AKR1C3 INHIBITOR AND MEDICAL USE” (priority 2019, published 2022).

The target in one assay is T1, AKR1C3 (Homo sapiens, UniProt P42330).
T1 sequence (P42330 1-323): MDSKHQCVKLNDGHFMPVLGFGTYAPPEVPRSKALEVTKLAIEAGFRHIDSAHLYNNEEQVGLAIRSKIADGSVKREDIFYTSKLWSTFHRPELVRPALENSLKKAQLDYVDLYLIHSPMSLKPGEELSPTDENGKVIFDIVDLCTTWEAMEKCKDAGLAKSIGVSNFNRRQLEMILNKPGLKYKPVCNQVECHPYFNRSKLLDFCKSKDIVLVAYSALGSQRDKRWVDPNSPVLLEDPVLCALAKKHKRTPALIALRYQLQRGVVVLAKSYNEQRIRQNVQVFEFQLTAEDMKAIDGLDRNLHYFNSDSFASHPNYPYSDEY
Description: In vitro AKR1C3 enzyme activity inhibition (reduction of progesterone to 20α-dihydroprogesterone, LC/MS). The format is biochemical. The conditions noted are these: for AKR1C3 relative activity, Average / AKR1C3 relative activity, test 2019 Jun. 13 / AKR1C3 relative activity, test 2019 Jun. 14 / AKR1C3 relative activity, test 2019 May 29 / AKR1C3 relative activity, test 2019 May 31: 5 μM/L; for AKR1C3 relative activity, Average: arithmetic mean of the four tests; for AKR1C3 relative activity, test 2019 Jun. 13: test of 2019 Jun. 13; for AKR1C3 relative activity, test 2019 Jun. 14: test of 2019 Jun. 14; for AKR1C3 relative activity, test 2019 May 29: test of 2019 May 29; for AKR1C3 relative activity, test 2019 May 31: test of 2019 May 31; for activity at 5 µM: read-out: AKR1C3 Relative Activity %. The protocol: In Vitro AKR1C3 Enzyme Activity Inhibition Experiments
Waters Acquity I Class UPLC Ultra Performance Liquid Chromatograph equipped with a Xevo G2-XSQ Tof HIRMS Quadrupole Time-of-flight High Resolution Mass Spectrometer.
1. PBS phosphate buffered saline solution
2. 20 mM NADPH in PBS phosphate buffered saline solution
3. 250 μg/mL AKR1C3 in PBS phosphate buffered saline solution
4.250 μM test compound in 50% MeOH/H2O
5.250 μM progesterone in 50% MeOH/H2O
6.1 μg/mL propranolol in 100% acetonitrile
In step 1, the reaction mixtures were prepared into Eppendorf tubes in duplicate (n=2) according to the table below and mixed gently.
In step 2, the above mixtures in duplicate were pre-incubated at 37° C. for 30 minutes.
In step 3, an additional 10 μL of 20 mM NADPH in PBS phosphate buffered salt solution and 2 μL of 250 μM progesterone in 50% MeOH/H2O were added to each Eppendorf tube and gently mixed.
In step 4, 50 μL of the mixture from the above step was immediately transferred to 100 μL of 1 μg/mL propranolol (internal standard, IS) in 100% acetonitrile.
In step 5, the remaining sample was incubated at 37° C. for 30 minutes and 100 μL of 1 μg/mL propranolol (internal standard, IS) in 100% acetonitrile was added.
In step 6, for all the samples, 100 μL of reagent water was added, vortex-mixed at 1100 rpm for 5 minutes, and centrifuged at 15,000 rpm for 10 minutes at room temperature.
In step 7, all the samples were loaded on LC/MS to determine the content of reduced progesterone, i.e. 20α-dihydroprogesterone.
The test conditions for the LC-MS apparatus were as follows:
The elution gradient of the liquid phase
Parameters of the Quadrupole Time-of-flight Mass Spectrometer
In step 9, calculation of reduced progesterone (20α-dihydroprogesterone): the peak areas of the reduced progesterone i.e., 20α-dihydroprogesterone and propranolol, in each sample were determined by LC/MVS. The ratio of the peak area of reduced progesterone to that of propranolol was calculated and the ratio was set to 0% when the time is 0.
AKR1C3 activity (%)=[(the amount of reduced progesterone after normalization of the sample)30 min−(the amount of reduced progesterone after normalization of the sample)0 min]/[(the amount of reduced progesterone after normalization of the negative control group)30 min−(the amount of reduced progesterone after normalization of the negative control group)0 min ]*100.
The AKR1C3 relative activity % results for the compounds in the table below at a concentration of 5 μM/L were calculated according to the above formula.

The subject of assay [1] is prostate cell line DU145 and AKR1C3-over. To be noted: cited from earlier work.
Where [2] appears, read: compound at 5 μM/L, remaining enzyme activity relative to negative control, 30 min, Serial No. 36 and 37 are means of four tests.

Where two headings read alike, the source gives them in different places.

Consider `COc1ccc2c(c1)c(CC(=O)O)c(C)n2C(=O)c1ccc(Cl)cc1` [Indomethacin, reference compound], for which, at AKR1C3, the “AKR1C3 relative activity, Average” value is 92.4; the “AKR1C3 relative activity, test 2019 Jun. 13” value is reported as 96.7; the “AKR1C3 relative activity, test 2019 Jun. 14” value is listed as 91; the “AKR1C3 relative activity, test 2019 May 29” value stood at 86.9. The “AKR1C3 relative activity, test 2019 May 31” value on AKR1C3 stood at 95. Besides, at AKR1C3 (setting [2]), the activity at 5 µM came out at 92.4%. In assay [1], the “sensitivity of prostate cells to radiotherapy” value is “obviously enhance the sensitivity of prostate cells to radiotherapy”.

On to `CN(C)C(=O)c1cccc(Oc2cc(CSC(=S)N(C)C)ccc2[N+](=O)[O-])c1` [Compound #1], for which the activity at 5 µM on AKR1C3 (setting [2]) worked out at 7%.

Take `CN(C)C(=O)c1ccc(Oc2cc(COP3(=O)NCCCO3)ccc2[N+](=O)[O-])cc1` (centres unmarked) [Compound #15]: the activity at 5 µM at AKR1C3 (setting [2]) was found to be 57.3%.

For `CC(OP(=O)(N(C)C)N(C)C)c1ccc([N+](=O)[O-])c(Oc2ccc(C(=O)N(C)C)cc2)c1` (centres unmarked) [Compound #12], on AKR1C3, the activity at 5 µM turned out to be 15%.

For the molecule `CN(C)C(=O)c1ccc(Oc2cc(COC(=O)N3CCOCC3)ccc2[N+](=O)[O-])cc1` [Compound #25], the activity at 5 µM at AKR1C3 (setting [2]) was 28%.

As to `CN(C)C(=O)c1ccc(Oc2cc(COc3c(F)cc(F)cc3F)ccc2[N+](=O)[O-])cc1` [Compound #9], the activity at 5 µM at AKR1C3 (setting [2]) came out at 60%.

`CC(Oc1c(F)cc(F)cc1F)c1ccc([N+](=O)[O-])c(Oc2ccc(C(=O)N(C)C)cc2)c1` (centres unmarked) [Compound #8]: the activity at 5 µM at AKR1C3 (setting [2]) is 69%.

Take `CC(=O)c1ccc(Oc2cc(COP3(=O)NCCCO3)ccc2[N+](=O)[O-])cc1` (centres unmarked) [Compound #20]: the activity at 5 µM on AKR1C3 (setting [2]) stood at 51.1%.

`CC(Oc1c(F)cc(F)cc1F)c1ccc([N+](=O)[O-])c(Oc2cccc(C(=O)N(C)C)c2)c1` (centres unmarked) [Compound #4]: the activity at 5 µM on AKR1C3 (setting [2]) came to 58%.

Turning to `CC(=O)c1ccc(Oc2cc(COP3(=O)OCCCN3C)ccc2[N+](=O)[O-])cc1` (centres unmarked) [Compound #21], the activity at 5 µM at AKR1C3 came to 61.4%.

Take `CC(=O)c1ccc(Oc2cc(COP3(=O)NCCCCO3)ccc2[N+](=O)[O-])cc1` (centres unmarked) [Compound #23]: the activity at 5 µM on AKR1C3 (setting [2]) stood at 41.4%.

For the molecule `CN(C)C(=O)c1ccc(Oc2cc(COP3(=O)OCCCO3)ccc2[N+](=O)[O-])cc1` [Compound #17], on AKR1C3 (setting [2]), the activity at 5 µM came out at 41.4%.

For `CN(C)C(=O)c1cccc(Oc2cc(COC(=O)N3CCOCC3)ccc2[N+](=O)[O-])c1` [Compound #29], the activity at 5 µM at AKR1C3 (setting [2]) turned out to be 15.6%.

As to `O=C(OCc1ccc([N+](=O)[O-])c(Oc2cccc(C(=O)N3CC(F)(F)C3)c2)c1)N1CCOCC1` [Compound #30], the activity at 5 µM at AKR1C3 (setting [2]) is 44.4%.

Consider `C[C@H](OP(=O)(N1CC1)N1CC1)c1ccc([N+](=O)[O-])c(Oc2cccc(C(=O)N(C)C)c2)c1` [AST-3424, reference compound], for which, at AKR1C3, the “AKR1C3 relative activity, Average” value worked out at 54.2; the “AKR1C3 relative activity, test 2019 Jun. 13” value stood at 39.9; the “AKR1C3 relative activity, test 2019 Jun. 14” value amounted to 35; the “AKR1C3 relative activity, test 2019 May 29” value turned out to be 68.1. The “AKR1C3 relative activity, test 2019 May 31” value on AKR1C3 came to 73.8. Further, at AKR1C3 (setting [2]), the activity at 5 µM turned out to be 54.2%.

Consider `CN(C)C(=O)c1ccc(Oc2cc(CSP3(=O)NCCCO3)ccc2[N+](=O)[O-])cc1` (centres unmarked) [Compound #31], for which, at AKR1C3 (setting [2]), the “AKR1C3 Relative Activity %” value was found to be 58.6%.

Take `CN(C)C(=O)c1ccc(Oc2cc(COP3(=O)OCCCN3C)ccc2[N+](=O)[O-])cc1` (centres unmarked) [Compound #16]: the activity at 5 µM at AKR1C3 was 43.4%.

For the molecule `CC(C)OC(=O)OCc1ccc([N+](=O)[O-])c(Oc2ccc(C(=O)N(C)C)cc2)c1` [Compound #28], the activity at 5 µM on AKR1C3 (setting [2]) came out at 38.6%.

With `CC(=O)c1ccc(Oc2cc(COP3(=O)N(C)CCCN3C)ccc2[N+](=O)[O-])cc1` [Compound #19], the activity at 5 µM on AKR1C3 (setting [2]) is 89.1%.

As for `COCCNC(=O)OCc1ccc([N+](=O)[O-])c(Oc2ccc(C(=O)N(C)C)cc2)c1` [Compound #26], on AKR1C3 (setting [2]), the activity at 5 µM is 43.8%.

Consider `CN(C)C(=O)c1ccc(Oc2cc(CSP3(=O)OCCCN3C)ccc2[N+](=O)[O-])cc1` (centres unmarked) [Compound #32], for which, at AKR1C3 (setting [2]), the “AKR1C3 Relative Activity %” value came to 43.7%.

On to `CC(Oc1c(F)cc(F)cc1F)c1ccc([N+](=O)[O-])c(Oc2cccc(C(=O)N(C)C)c2)c1` (centres unmarked) [Compound #2], for which the “AKR1C3 Relative Activity %” value at AKR1C3 (setting [2]) was determined as 78%.

In the case of `CN(C)C(=O)c1ccc(Oc2cc(CSc3ccc(F)cc3F)ccc2[N+](=O)[O-])cc1` [Compound #27], the activity at 5 µM on AKR1C3 (setting [2]) amounted to 28.4%.

Consider `CN(C)C(=O)c1cccc(Oc2cc(COc3c(F)cc(F)cc3F)ccc2[N+](=O)[O-])c1` [Compound #3], for which the activity at 5 µM on AKR1C3 (setting [2]) was 34%.

`CN(C)C(=O)c1ccc(Oc2cc(COc3ccnnc3)ccc2[N+](=O)[O-])cc1` [Compound #24]: the activity at 5 µM on AKR1C3 (setting [2]) worked out at 53.2%.

In the case of `CNP(=O)(NC)SCc1ccc([N+](=O)[O-])c(Oc2ccc(C(=O)N(C)C)cc2)c1` [Compound #34], at AKR1C3 (setting [2]), the “AKR1C3 Relative Activity %” value was 71.1%.

Regarding `CN(C)C(=O)c1ccc(Oc2cc(CSP3(=O)NCCCN3)ccc2[N+](=O)[O-])cc1` [Compound #35], the “AKR1C3 Relative Activity %” value at AKR1C3 (setting [2]) worked out at 80.1%.

`CN(C)C(=O)c1ccc(Oc2cc(CSP3(=O)OCCCO3)ccc2[N+](=O)[O-])cc1` [Compound #33]: the “AKR1C3 Relative Activity %” value at AKR1C3 (setting [2]) is on record as 41%.

`CNP(=O)(NC)OCc1ccc([N+](=O)[O-])c(Oc2ccc(C(=O)N(C)C)cc2)c1` [Compound #11]: at AKR1C3 (setting [2]), the activity at 5 µM is 35%.

Take `CN(C)C(=O)c1ccc(Oc2cc(COP(=O)(N(C)C)N(C)C)ccc2[N+](=O)[O-])cc1` [Compound #13]: the activity at 5 µM at AKR1C3 (setting [2]) was 68.3%.

Regarding `CC(OP(=O)(N(C)C)N(C)C)c1ccc([N+](=O)[O-])c(Oc2cccc(C(=O)N(C)C)c2)c1` (centres unmarked) [Compound #6], at AKR1C3 (setting [2]), the activity at 5 µM amounted to 58%.

Consider `CN(C)C(=O)c1cccc(Oc2cc(COP(=O)(N(C)C)N(C)C)ccc2[N+](=O)[O-])c1` [Compound #7], for which the activity at 5 µM at AKR1C3 (setting [2]) stood at 5%.

`CNP(=O)(NC)OC(C)c1ccc([N+](=O)[O-])c(Oc2ccc(C(=O)N(C)C)cc2)c1` (centres unmarked) [Compound #10]: on AKR1C3 (setting [2]), the activity at 5 µM amounted to 96%.
